Test results published in the supplement of paper PMC4862054.

Experiments:
CAL-148 [1] = assay: normalised viability (% of control), CellTiter-Blue; higher = more viable cells (about 100 = DMSO control); conditions: incubation time: 72 h
Protocol: (§1)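 DSRT, CellTiter-Blue viability, 72 h incubation. Signal is normalised to DMSO and benzethonium chloride controls. Value is the normalised response at dose 9.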

CAL-51 = assay: as above; conditions: incubation time: 72 h
Protocol: as §1

CAL-85-1 = assay: as above; conditions: incubation time: 72 h
Protocol: as §1

DU-4475 = assay: as above; conditions: incubation time: 72 h
Protocol: as §1

HDQ-P1 = assay: as above; conditions: incubation time: 72 h
Protocol: as §1

MDA-MB-453 [2] = assay: as above; conditions: incubation time: 72 h
Protocol: as §1

CAL-148 [3] = conditions: 72 h
Summary of the method: (§2)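 Breast cancer cell lines in 20 µl suspension were seeded onto 384-well plates that already held compound dissolved in 5 µl medium and were incubated for 72 h. Viability was measured by adding 2.5 µl CellTiter-Blue for 2 h at 37 °C and reading fluorescence at 560/590 nm. Each plate was normalised to vehicle and a positive kill control and checked by Z'-factor. EC50 was taken from a fitted percent-inhibition dose-response curve, censored at the highest concentration, and rows with a drug sensitivity score of zero were removed.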

MDA-MB-453 [4] = conditions: 72 h
Summary of the method: as §2

CAL-120 = conditions: 72 h
Summary of the method: as §2

HCC1937 = conditions: 72 h
Summary of the method: as §2

MDA-MB-231 = conditions: 72 h
Summary of the method: as §2

For `CNCc1ccc(-c2[nH]c3cc(F)cc4c3c2CCNC4=O)cc1` [Rucaparib] (10000 nM), the normalised viability (CAL-148 [1]) was 37.5%, the normalised viability (CAL-51) was 40.5% and the normalised viability (CAL-85-1) was 45.8%. It also gave a normalised viability (DU-4475) of 46.2%, a normalised viability (HDQ-P1) of 106% and a normalised viability (MDA-MB-453 [2]) of 32.1%.
With `CN[C@@H]1C[C@H]2O[C@@](C)([C@@H]1OC)n1c3ccccc3c3c4c(c5c6ccccc6n2c5c31)C(=O)N[C@H]4O` [UCN-01] the “EC50, CellTiter-Blue viability” value (CAL-148 [3]) was 2350 nM, the “EC50, CellTiter-Blue viability” value (MDA-MB-453 [4]) was 182 nM and the “EC50, CellTiter-Blue viability” value (CAL-120) was 24.5 nM. The “EC50, CellTiter-Blue viability” value (HCC1937) was 58 nM and the “EC50, CellTiter-Blue viability” value (MDA-MB-231) was 59.2 nM.
With `CN(C)/N=N/c1[nH]cnc1C(N)=O` [Dacarbazine] (10000 nM) the normalised viability (CAL-148 [1]) was 96.2%, the normalised viability (CAL-51) was 91.2% and the normalised viability (CAL-85-1) was 87.5%. It also gave a normalised viability (DU-4475) of 103%, a normalised viability (HDQ-P1) of 104% and a normalised viability (MDA-MB-453 [2]) of 105%.
`C#Cc1cccc(Nc2ncnc3cc(OCCOC)c(OCCOC)cc23)c1` [Erlotinib] (10000 nM) was tested, and the normalised viability (CAL-148 [1]) was 24.7%, the normalised viability (CAL-51) was 50.9% and the normalised viability (CAL-85-1) was 47.7%. It also gave a normalised viability (DU-4475) of 84.5%, a normalised viability (HDQ-P1) of 68% and a normalised viability (MDA-MB-453 [2]) of 55.1%.
With `CO[C@H]1/C=C\C=C(/C)C(=O)NC2=CC(=O)C(NCCN(C)C)=C(C[C@@H](C)C[C@H](OC)[C@H](O)[C@@H](C)/C=C(\C)[C@@H]1OC(N)=O)C2=O` [Alvespimycin] (1000 nM) the normalised viability (CAL-148 [1]) was 4.23%, the normalised viability (CAL-51) was 6.39% and the normalised viability (CAL-85-1) was 18.6%. It also gave a normalised viability (DU-4475) of -0.26%, a normalised viability (HDQ-P1) of 29.6% and a normalised viability (MDA-MB-453 [2]) of 3.62%.
`Cc1ccc(C(=O)Nc2ccc(CN3CCN(C)CC3)c(C(F)(F)F)c2)cc1C#Cc1cnc2cccnn12` [Ponatinib] (1000 nM) gave a normalised viability (CAL-148 [1]) of 77.5%, a normalised viability (CAL-51) of 42% and a normalised viability (CAL-85-1) of 50.1%. The normalised viability (DU-4475) was 50.2%, the normalised viability (HDQ-P1) was 21.9% and the normalised viability (MDA-MB-453 [2]) was 38.4%.
In the case of `C#Cc1cccc(Nc2ncnc3cc(OCCOC)c(OCCOC)cc23)c1` [Erlotinib], the “EC50, CellTiter-Blue viability” value (CAL-148 [3]) is reported as 3630 nM, the “EC50, CellTiter-Blue viability” value (MDA-MB-453 [4]) is reported as 8340 nM and the “EC50, CellTiter-Blue viability” value (CAL-120) is reported as 2450 nM. The “EC50, CellTiter-Blue viability” value (HCC1937) was 937 nM.
`N[C@@H](CSC(c1ccccc1)(c1ccccc1)c1ccccc1)C(=O)O` [S-trityl-L-cysteine] (40000 nM) showed a normalised viability (CAL-148 [1]) of 114%, a normalised viability (CAL-51) of 87% and a normalised viability (CAL-85-1) of 87.5%. It also gave a normalised viability (DU-4475) of 92.2%, a normalised viability (HDQ-P1) of 65% and a normalised viability (MDA-MB-453 [2]) of 83.2%.
`CCC1=C[C@@H]2CN(C1)Cc1c([nH]c3ccccc13)[C@@](C(=O)OC)(c1cc3c(cc1OC)N(C)[C@H]1[C@@](O)(C(=O)OC)[C@H](OC(C)=O)[C@]4(CC)C=CCN5CC[C@]31[C@@H]54)C2` [Vinorelbine] was tested, and the “EC50, CellTiter-Blue viability” value (CAL-148 [3]) was 49.1 nM, the “EC50, CellTiter-Blue viability” value (MDA-MB-453 [4]) was 9.96 nM and the “EC50, CellTiter-Blue viability” value (CAL-120) was 22.5 nM. The “EC50, CellTiter-Blue viability” value (HCC1937) was 26.3 nM and the “EC50, CellTiter-Blue viability” value (MDA-MB-231) was 67.6 nM.
With `Clc1ccc(Nc2nnc(Cc3ccncc3)c3ccccc23)cc1` [Vatalanib] (10000 nM) the normalised viability (CAL-148 [1]) was 84.5%, the normalised viability (CAL-51) was 99.4% and the normalised viability (CAL-85-1) was 83.2%. For the same compound, the normalised viability (DU-4475) was 102%, the normalised viability (HDQ-P1) was 90.6% and the normalised viability (MDA-MB-453 [2]) was 91.1%.
With `Cn1c(Nc2ccc(C(F)(F)F)cc2)nc2cc(Oc3ccnc(-c4ncc(C(F)(F)F)[nH]4)c3)ccc21` [RAF265] the “EC50, CellTiter-Blue viability” value (CAL-120) was 77.8 nM, the “EC50, CellTiter-Blue viability” value (HCC1937) was 99.1 nM and the “EC50, CellTiter-Blue viability” value (MDA-MB-231) was 141 nM.
With `Cc1ccc(-n2nc(C(C)(C)C)cc2NC(=O)Nc2ccc(OCCN3CCOCC3)c3ccccc23)cc1` [Doramapimod] (10000 nM) the normalised viability (CAL-148 [1]) was 111%, the normalised viability (CAL-51) was 86.8% and the normalised viability (CAL-85-1) was 72.6%. It also gave a normalised viability (DU-4475) of 102%, a normalised viability (HDQ-P1) of 81% and a normalised viability (MDA-MB-453 [2]) of 62.7%.
In the case of `CC(C)Cn1cnc2c(N)nc3ccccc3c21` [Imiquimod], the “EC50, CellTiter-Blue viability” value (MDA-MB-453 [4]) is reported as 6690 nM.
In the case of `N[C@@H](CSC(c1ccccc1)(c1ccccc1)c1ccccc1)C(=O)O` [S-trityl-L-cysteine], the “EC50, CellTiter-Blue viability” value (CAL-120) is reported as 2000 nM, the “EC50, CellTiter-Blue viability” value (HCC1937) is reported as 715 nM and the “EC50, CellTiter-Blue viability” value (MDA-MB-231) is reported as 955 nM.
With `C=C(c1ccc(C(=O)O)cc1)c1cc2c(cc1C)C(C)(C)CCC2(C)C` [Bexarotene] (10000 nM) the normalised viability (CAL-148 [1]) was 79.8%, the normalised viability (CAL-51) was 90.2% and the normalised viability (CAL-85-1) was 95.1%. For the same compound, the normalised viability (DU-4475) was 116%, the normalised viability (HDQ-P1) was 103% and the normalised viability (MDA-MB-453 [2]) was 86.7%.
For `O=P1(NCCCl)OCCCN1CCCl` (configuration not stated) [Ifosfamide] (10000 nM), the normalised viability (CAL-148 [1]) was 101%, the normalised viability (CAL-51) was 107% and the normalised viability (CAL-85-1) was 88.4%. It also gave a normalised viability (DU-4475) of 85.1%, a normalised viability (HDQ-P1) of 125% and a normalised viability (MDA-MB-453 [2]) of 106%.
For `C=C(c1ccc(C(=O)O)cc1)c1cc2c(cc1C)C(C)(C)CCC2(C)C` [Bexarotene], the “EC50, CellTiter-Blue viability” value (CAL-148 [3]) was 1730 nM.
